± gives the expanded uncertainty stated by the source.
Settings: Liquid

CCOCCO [2-ethoxyethan-1-ol]
viscosity [mPa·s]
Settings	293.15 K	303.15 K	313.15 K	323.15 K	333.15 K	343.15 K	353.15 K
100 kPa	2.073 ± 0.049	1.663 ± 0.039	1.346 ± 0.032	1.117 ± 0.026	0.941 ± 0.022	0.804 ± 0.019	0.695 ± 0.017
20000 kPa	2.417 ± 0.12	1.922 ± 0.095	1.599 ± 0.079	1.32 ± 0.065	1.081 ± 0.054	0.939 ± 0.046	0.829 ± 0.041
40000 kPa	2.776 ± 0.14	2.21 ± 0.11	1.834 ± 0.091	1.529 ± 0.076	1.236 ± 0.061	1.078 ± 0.053	0.953 ± 0.047
60000 kPa	3.145 ± 0.16	2.512 ± 0.12	2.071 ± 0.1	1.743 ± 0.086	1.408 ± 0.07	1.221 ± 0.06	1.068 ± 0.053
80000 kPa	3.509 ± 0.17	2.816 ± 0.14	2.308 ± 0.11	1.931 ± 0.096	1.592 ± 0.079	1.362 ± 0.067	1.172 ± 0.058
100000 kPa	3.859 ± 0.19	3.115 ± 0.15	2.543 ± 0.13	2.13 ± 0.11	1.787 ± 0.088	1.5 ± 0.074	1.265 ± 0.063

CC(C)OCCO [2-isopropoxyethanol]
viscosity [mPa·s]
Settings	293.15 K	303.15 K	313.15 K	323.15 K	333.15 K	343.15 K	353.15 K
100 kPa	2.38 ± 0.056	1.87 ± 0.044	1.506 ± 0.036	1.228 ± 0.029	1.024 ± 0.024	0.864 ± 0.021	0.739 ± 0.018
20000 kPa	2.939 ± 0.14	2.284 ± 0.11	1.861 ± 0.092	1.485 ± 0.074	1.25 ± 0.062	1.046 ± 0.052	0.927 ± 0.046
40000 kPa	3.493 ± 0.17	2.691 ± 0.13	2.186 ± 0.11	1.731 ± 0.086	1.48 ± 0.073	1.236 ± 0.061	1.09 ± 0.054
60000 kPa	4.073 ± 0.2	3.123 ± 0.15	2.512 ± 0.12	2.002 ± 0.099	1.72 ± 0.085	1.445 ± 0.071	1.236 ± 0.061
80000 kPa	4.661 ± 0.23	3.566 ± 0.18	2.838 ± 0.14	2.296 ± 0.11	1.966 ± 0.097	1.669 ± 0.083	1.368 ± 0.068
100000 kPa	5.241 ± 0.26	4.008 ± 0.2	3.162 ± 0.16	2.611 ± 0.13	2.212 ± 0.11	1.903 ± 0.094	1.536 ± 0.076

COCCO [2-methoxyethan-1-ol]
viscosity [mPa·s]
Settings	293.15 K	303.15 K	313.15 K	323.15 K	333.15 K	343.15 K	353.15 K
100 kPa	1.707 ± 0.04	1.398 ± 0.033	1.162 ± 0.027	0.984 ± 0.023	0.843 ± 0.02	0.731 ± 0.017	0.635 ± 0.015
20000 kPa	1.948 ± 0.096	1.583 ± 0.078	1.339 ± 0.066	1.135 ± 0.056	0.965 ± 0.048	0.852 ± 0.042	0.738 ± 0.036
40000 kPa	2.186 ± 0.11	1.777 ± 0.088	1.489 ± 0.073	1.268 ± 0.063	1.084 ± 0.053	0.958 ± 0.047	0.834 ± 0.041
60000 kPa	2.426 ± 0.12	1.977 ± 0.098	1.647 ± 0.081	1.405 ± 0.069	1.21 ± 0.06	1.058 ± 0.052	0.924 ± 0.046
80000 kPa	2.659 ± 0.13	2.176 ± 0.11	1.814 ± 0.089	1.544 ± 0.076	1.338 ± 0.066	1.149 ± 0.057	1.006 ± 0.05
100000 kPa	2.878 ± 0.14	2.367 ± 0.12	1.988 ± 0.098	1.685 ± 0.083	1.466 ± 0.072	1.231 ± 0.061	1.08 ± 0.053
